# Test results from ChEMBL document CHEMBL1759968, “Synthesis and biological evaluation of unsaturated keto and exomethylene D-arabinopyranonucleoside analogs: novel 5-fluorouracil analogs that target thymidylate synthase” (Eur J Med Chem, 2011).
# Active and inactive are the calls of the source. The rule behind the calls is not given here.
# Tests used:
# [1] = test system: Mammalian orthoreovirus 1; test: Antiviral activity against Reovirus 1 infected in Vero cells assessed as inhibition of virus-induced cytopathic effect; type: functional, organism-based
# Human respirovirus 3 = test: Antiviral activity against Human parainfluenza virus 3 infected in Vero cells assessed as inhibition of virus-induced cytopathic effect; type: functional, organism-based
# [2] = test system: Vesicular stomatitis virus; test: Antiviral activity against Vesicular stomatitis virus infected in HEL cells assessed as inhibition of virus-induced cytopathic effect; type: functional, organism-based
# Vaccinia virus = test: Antiviral activity against Vaccinia virus infected in HEL cells assessed as inhibition of virus-induced cytopathic effect; type: functional, organism-based; conditions: Orthopoxvirus vaccinia
# Human alphaherpesvirus 2 = test: Antiviral activity against Herpes simplex virus type-2 infected in HEL cells assessed as inhibition of virus-induced cytopathic effect; type: functional, organism-based
# Human alphaherpesvirus 1 = test: Antiviral activity against Herpes simplex virus type-1 infected in HEL cells assessed as inhibition of virus-induced cytopathic effect; type: functional, organism-based
# L1210 [3] = test: Cytostatic activity against mouse L1210 cells after 2 days by coulter counting analysis; type: functional, cell-based; conditions: L1210, 48 h
# FM3A = test: Cytostatic activity against mouse FM3A cells after 2 days by coulter counting analysis; type: functional, cell-based; conditions: 48 h
# CCRF-CEM = test: Cytostatic activity against human CEM cells after 3 days by coulter counting analysis; type: functional, cell-based; conditions: 72 h
# HeLa [4] = test: Cytostatic activity against human HeLa cells after 3 days by coulter counting analysis; type: functional, cell-based; conditions: 72 h
# Punta Toro virus = test: Antiviral activity against Punta Toro virus infected in Vero cells assessed as inhibition of virus-induced cytopathic effect; type: functional, organism-based
# [5] = test system: Vesicular stomatitis virus; test: Antiviral activity against Vesicular stomatitis virus infected in HeLa cells assessed as inhibition of virus-induced cytopathic effect; type: functional, organism-based
# [6] = test system: Respiratory syncytial virus; test: Antiviral activity against Respiratory syncytial virus infected in HeLa cells assessed as inhibition of virus-induced cytopathic effect; type: functional, organism-based
# Sindbis virus = test: Antiviral activity against Sindbis virus infected in Vero cells assessed as inhibition of virus-induced cytopathic effect; type: functional, organism-based
# Coxsackievirus B4 [7] = test: Antiviral activity against Human coxsackievirus B4 infected in Vero cells assessed as inhibition of virus-induced cytopathic effect; type: functional, organism-based
# Coxsackievirus B4 [8] = test: Antiviral activity against Human coxsackievirus B4 infected in HeLa cells assessed as inhibition of virus-induced cytopathic effect; type: functional, organism-based
# L1210 [9] = test: Cytostatic activity against mouse L1210 cells in presence of 20 uM thymidine; type: functional, cell-based
# L1210 [10] = test: Cytostatic activity against mouse L1210 cells in presence of 20 uM 2'-deoxyuridine; type: functional, cell-based
# L1210 [11] = test: Cytostatic activity against mouse L1210 cells in presence of 500 uM uridine; type: functional, cell-based
# L1210 [12] = test: Cytostatic activity against mouse L1210 cells in presence of 500 uM uracil; type: functional, cell-based
# HeLa [13] = test: Cytostatic activity against human HeLa cells in presence of 20 uM thymidine; type: functional, cell-based
# HeLa [14] = test: Cytostatic activity against human HeLa cells in presence of 20 uM 2'-deoxyuridine; type: functional, cell-based
# HeLa [15] = test: Cytostatic activity against human HeLa cells in presence of 500 uM uridine; type: functional, cell-based
# HeLa [16] = test: Cytostatic activity against human HeLa cells in presence of 500 uM uracil; type: functional, cell-based
SMILES,Activity [1],Activity (Human respirovirus 3),Activity [2],Activity (Vaccinia virus),Activity (Human alphaherpesvirus 2),Activity (Human alphaherpesvirus 1),IC50 (L1210 [3]) [µM],IC50 (FM3A) [µM],IC50 (CCRF-CEM) [µM],IC50 (HeLa [4]) [µM],Activity (Punta Toro virus),Activity [5],Activity [6],Activity (Sindbis virus),Activity (Coxsackievirus B4 [7]),Activity (Coxsackievirus B4 [8]),further results
C=C1C=CCO[C@@H]1n1cc(C)c(O)nc1=O,inactive,inactive,inactive,inactive,inactive,inactive,486,≥ 900,504,339,inactive,inactive,inactive,inactive,inactive,inactive,–
Cc1cn([C@H]2OCC=CC2=O)c(=O)nc1O,inactive,inactive,inactive,inactive,inactive,inactive,34,77,104,34,inactive,inactive,inactive,inactive,inactive,inactive,–
C=C1[C@H](O)[C@H](O)CO[C@@H]1n1cc(C)c(O)nc1=O,inactive,inactive,inactive,inactive,inactive,inactive,610,775,≥ 800,≥ 800,inactive,inactive,inactive,inactive,inactive,inactive,–
C=C1C=CCO[C@@H]1n1ccc(O)nc1=O,inactive,inactive,inactive,inactive,inactive,inactive,549,> 1000,450,760,inactive,inactive,inactive,inactive,inactive,inactive,–
O=C1C=CCO[C@@H]1n1cc(C(F)(F)F)c(O)nc1=O,inactive,inactive,inactive,inactive,inactive,inactive,23,46,39,34,inactive,inactive,inactive,inactive,inactive,inactive,–
C=C1C=CCO[C@@H]1n1ccc(NC(=O)c2ccccc2)nc1=O,inactive,inactive,inactive,inactive,inactive,inactive,368,379,432,296,inactive,inactive,inactive,inactive,inactive,inactive,–
C=C1[C@H](O)[C@H](O)CO[C@@H]1n1ccc(O)nc1=O,inactive,inactive,inactive,inactive,inactive,inactive,> 800,> 800,> 800,≥ 800,inactive,inactive,inactive,inactive,inactive,inactive,–
O=C(Nc1ccn([C@H]2OCC=CC2=O)c(=O)n1)c1ccccc1,inactive,inactive,inactive,inactive,inactive,inactive,28,62,46,72,inactive,inactive,inactive,inactive,inactive,inactive,–
O=C1C=CCO[C@@H]1n1ccc(O)nc1=O,inactive,inactive,inactive,inactive,inactive,inactive,92,121,82,42,inactive,inactive,inactive,inactive,inactive,inactive,–
O=c1[nH]c(=O)n([C@@H]2O[C@H](CO)[C@@H](O)[C@H]2O)cc1F [5-FLUOROURIDINE],inactive,inactive,inactive,inactive,inactive,inactive,0.014,0.014,–,–,inactive,inactive,inactive,inactive,inactive,inactive,IC50 (L1210 [9]): 1.2 µM; IC50 (L1210 [10]): 0.026 µM; IC50 (L1210 [11]): 0.72 µM; IC50 (L1210 [12]): 0.0075 µM; IC50 (HeLa [13]): 0.017 µM; IC50 (HeLa [14]): 0.022 µM; IC50 (HeLa [15]): 1.6 µM; IC50 (HeLa [16]): 0.016 µM
C=C1C=CCO[C@@H]1n1ccc(N)nc1=O,inactive,inactive,inactive,inactive,inactive,inactive,1390,≥ 1800,1550,990,inactive,inactive,inactive,inactive,inactive,inactive,–
